Test results: patent US9492471B2, “Methods of treating a disease or disorder associated with Bruton'S Tyrosine Kinase” (Celgene Avilomics Research, Inc., priority 2013, dated 2016)
Read-outs that look alike come from different tables or passages of the source.

Key:
Assay in all cases: HotSpot kinase profiling
Format in all cases: biochemical
TTBK1 = target: T1, TTBK1 (Homo sapiens, UniProt Q5TCY1)
T1 construct: purchased Reaction Biology Corp
In short: (§1)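 Percent inhibition, averaged when run more than once and referenced to a DMSO negative control, came from a radioactive filter-binding readout on P81 paper. Reactions of kinase with freshly made substrate and cofactors ran for 2 h at room temperature.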

PKCa = target: T2, PKCa (Homo sapiens, UniProt P17252)
T2 construct: purchased Reaction Biology Corp
In short: as §1

MST2/STK3 = target: T3, MST2/STK3 (Homo sapiens, UniProt Q13188)
T3 construct: purchased Reaction Biology Corp
T3 sequence (Q13188 1-491): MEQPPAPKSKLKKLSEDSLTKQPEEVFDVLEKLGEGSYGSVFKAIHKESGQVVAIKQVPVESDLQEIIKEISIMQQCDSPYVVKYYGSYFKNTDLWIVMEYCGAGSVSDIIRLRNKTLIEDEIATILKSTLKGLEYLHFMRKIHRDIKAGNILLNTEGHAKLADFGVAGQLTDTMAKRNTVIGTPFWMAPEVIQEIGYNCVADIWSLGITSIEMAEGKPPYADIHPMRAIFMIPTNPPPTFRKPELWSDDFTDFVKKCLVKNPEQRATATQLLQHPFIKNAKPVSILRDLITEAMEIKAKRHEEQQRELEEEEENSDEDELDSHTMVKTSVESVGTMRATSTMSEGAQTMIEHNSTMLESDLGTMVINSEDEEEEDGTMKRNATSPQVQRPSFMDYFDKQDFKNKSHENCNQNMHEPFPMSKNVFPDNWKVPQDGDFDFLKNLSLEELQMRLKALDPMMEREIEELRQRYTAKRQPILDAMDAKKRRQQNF
In short: as §1

RIPK3 = target: T4, RIPK3 (Homo sapiens, UniProt Q9Y572)
T4 construct: purchased Reaction Biology Corp
T4 sequence (Q9Y572 whole entry): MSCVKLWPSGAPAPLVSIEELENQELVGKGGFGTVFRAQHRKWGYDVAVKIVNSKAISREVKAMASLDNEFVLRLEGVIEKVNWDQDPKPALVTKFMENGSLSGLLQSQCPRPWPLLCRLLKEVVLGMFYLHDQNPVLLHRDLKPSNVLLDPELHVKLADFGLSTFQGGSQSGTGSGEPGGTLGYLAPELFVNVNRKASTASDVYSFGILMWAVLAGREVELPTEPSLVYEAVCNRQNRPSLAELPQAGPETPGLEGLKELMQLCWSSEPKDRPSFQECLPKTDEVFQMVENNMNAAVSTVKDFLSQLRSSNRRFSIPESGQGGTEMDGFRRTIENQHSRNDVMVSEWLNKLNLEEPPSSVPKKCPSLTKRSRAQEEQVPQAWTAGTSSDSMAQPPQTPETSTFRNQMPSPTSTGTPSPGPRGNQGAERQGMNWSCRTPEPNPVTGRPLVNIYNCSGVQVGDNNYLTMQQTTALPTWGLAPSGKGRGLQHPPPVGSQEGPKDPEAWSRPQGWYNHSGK
In short: as §1

DMPK = target: T5, DMPK (Homo sapiens, UniProt Q09013)
T5 construct: purchased Reaction Biology Corp
T5 sequence (Q09013 1-629): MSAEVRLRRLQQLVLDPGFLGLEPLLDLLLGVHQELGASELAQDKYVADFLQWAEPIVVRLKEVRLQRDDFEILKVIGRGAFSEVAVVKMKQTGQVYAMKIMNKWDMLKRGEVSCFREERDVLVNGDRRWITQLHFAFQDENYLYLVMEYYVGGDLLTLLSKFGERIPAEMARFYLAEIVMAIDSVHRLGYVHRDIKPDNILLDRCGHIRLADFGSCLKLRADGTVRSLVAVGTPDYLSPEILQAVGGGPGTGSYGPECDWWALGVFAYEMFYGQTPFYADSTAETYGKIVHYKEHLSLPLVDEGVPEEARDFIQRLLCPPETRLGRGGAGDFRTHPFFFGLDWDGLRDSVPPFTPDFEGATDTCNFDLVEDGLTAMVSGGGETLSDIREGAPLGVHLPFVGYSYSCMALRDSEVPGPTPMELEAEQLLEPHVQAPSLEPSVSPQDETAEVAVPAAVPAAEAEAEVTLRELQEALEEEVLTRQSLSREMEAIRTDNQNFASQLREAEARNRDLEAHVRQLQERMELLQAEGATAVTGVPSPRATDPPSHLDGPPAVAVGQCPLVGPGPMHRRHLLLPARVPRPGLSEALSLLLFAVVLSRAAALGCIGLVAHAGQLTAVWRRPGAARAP
In short: as §1

NEK6 = target: T6, NEK6 (Homo sapiens, UniProt Q9HC98)
T6 construct: purchased Reaction Biology Corp
T6 sequence (Q9HC98 whole entry): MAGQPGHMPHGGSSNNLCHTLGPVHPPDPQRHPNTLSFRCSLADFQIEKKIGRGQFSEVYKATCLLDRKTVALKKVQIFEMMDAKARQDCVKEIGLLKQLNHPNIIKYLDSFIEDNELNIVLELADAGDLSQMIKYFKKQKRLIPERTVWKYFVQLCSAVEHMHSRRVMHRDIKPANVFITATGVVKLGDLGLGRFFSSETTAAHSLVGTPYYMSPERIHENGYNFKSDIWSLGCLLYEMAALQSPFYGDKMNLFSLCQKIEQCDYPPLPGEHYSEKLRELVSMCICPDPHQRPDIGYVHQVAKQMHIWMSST
In short: as §1

MKK6 = target: T7, MKK6 (Homo sapiens, UniProt P52564)
T7 construct: purchased Reaction Biology Corp
T7 sequence (P52564 1-334): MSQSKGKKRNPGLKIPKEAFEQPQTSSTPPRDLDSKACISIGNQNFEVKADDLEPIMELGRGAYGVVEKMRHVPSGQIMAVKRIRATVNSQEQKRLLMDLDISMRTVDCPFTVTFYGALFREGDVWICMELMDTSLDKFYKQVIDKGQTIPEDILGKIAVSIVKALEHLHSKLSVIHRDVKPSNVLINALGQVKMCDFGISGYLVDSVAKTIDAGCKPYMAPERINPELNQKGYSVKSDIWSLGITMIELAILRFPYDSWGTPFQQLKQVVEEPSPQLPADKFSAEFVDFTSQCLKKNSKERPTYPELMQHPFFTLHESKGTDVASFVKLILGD
In short: as §1

MARK2/PAR-1Ba = target: T8, MARK2/PAR-1Ba (Homo sapiens, UniProt Q7KZI7)
T8 construct: purchased Reaction Biology Corp
T8 sequence (Q7KZI7 1-725 isoform Q7KZI7-4): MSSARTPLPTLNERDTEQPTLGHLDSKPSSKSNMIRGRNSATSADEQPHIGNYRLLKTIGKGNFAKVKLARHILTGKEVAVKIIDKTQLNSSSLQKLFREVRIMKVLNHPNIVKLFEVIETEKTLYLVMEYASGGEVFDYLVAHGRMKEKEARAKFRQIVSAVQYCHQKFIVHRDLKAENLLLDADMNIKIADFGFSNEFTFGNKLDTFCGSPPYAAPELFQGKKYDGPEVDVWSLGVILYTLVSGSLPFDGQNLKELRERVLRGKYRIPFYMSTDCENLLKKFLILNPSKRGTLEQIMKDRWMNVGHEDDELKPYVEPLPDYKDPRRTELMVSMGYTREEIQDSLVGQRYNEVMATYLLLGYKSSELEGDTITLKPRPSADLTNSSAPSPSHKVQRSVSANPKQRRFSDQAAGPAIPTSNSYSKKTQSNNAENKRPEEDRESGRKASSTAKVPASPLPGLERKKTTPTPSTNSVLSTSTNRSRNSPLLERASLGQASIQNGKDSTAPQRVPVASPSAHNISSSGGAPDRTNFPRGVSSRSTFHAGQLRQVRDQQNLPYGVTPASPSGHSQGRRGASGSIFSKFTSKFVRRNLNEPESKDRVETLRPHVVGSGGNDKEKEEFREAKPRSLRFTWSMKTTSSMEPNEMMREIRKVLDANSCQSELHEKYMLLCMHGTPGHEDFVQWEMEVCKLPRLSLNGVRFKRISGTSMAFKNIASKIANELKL
In short: as §1

PKN2/PRK2 = target: T9, PKN2/PRK2 (Homo sapiens, UniProt Q16513)
T9 construct: purchased Reaction Biology Corp
In short: as §1

RON/MST1R = target: T10, RON/MST1R (Homo sapiens, UniProt Q04912)
T10 construct: purchased Reaction Biology Corp
T10 sequence (Q04912 25-1400): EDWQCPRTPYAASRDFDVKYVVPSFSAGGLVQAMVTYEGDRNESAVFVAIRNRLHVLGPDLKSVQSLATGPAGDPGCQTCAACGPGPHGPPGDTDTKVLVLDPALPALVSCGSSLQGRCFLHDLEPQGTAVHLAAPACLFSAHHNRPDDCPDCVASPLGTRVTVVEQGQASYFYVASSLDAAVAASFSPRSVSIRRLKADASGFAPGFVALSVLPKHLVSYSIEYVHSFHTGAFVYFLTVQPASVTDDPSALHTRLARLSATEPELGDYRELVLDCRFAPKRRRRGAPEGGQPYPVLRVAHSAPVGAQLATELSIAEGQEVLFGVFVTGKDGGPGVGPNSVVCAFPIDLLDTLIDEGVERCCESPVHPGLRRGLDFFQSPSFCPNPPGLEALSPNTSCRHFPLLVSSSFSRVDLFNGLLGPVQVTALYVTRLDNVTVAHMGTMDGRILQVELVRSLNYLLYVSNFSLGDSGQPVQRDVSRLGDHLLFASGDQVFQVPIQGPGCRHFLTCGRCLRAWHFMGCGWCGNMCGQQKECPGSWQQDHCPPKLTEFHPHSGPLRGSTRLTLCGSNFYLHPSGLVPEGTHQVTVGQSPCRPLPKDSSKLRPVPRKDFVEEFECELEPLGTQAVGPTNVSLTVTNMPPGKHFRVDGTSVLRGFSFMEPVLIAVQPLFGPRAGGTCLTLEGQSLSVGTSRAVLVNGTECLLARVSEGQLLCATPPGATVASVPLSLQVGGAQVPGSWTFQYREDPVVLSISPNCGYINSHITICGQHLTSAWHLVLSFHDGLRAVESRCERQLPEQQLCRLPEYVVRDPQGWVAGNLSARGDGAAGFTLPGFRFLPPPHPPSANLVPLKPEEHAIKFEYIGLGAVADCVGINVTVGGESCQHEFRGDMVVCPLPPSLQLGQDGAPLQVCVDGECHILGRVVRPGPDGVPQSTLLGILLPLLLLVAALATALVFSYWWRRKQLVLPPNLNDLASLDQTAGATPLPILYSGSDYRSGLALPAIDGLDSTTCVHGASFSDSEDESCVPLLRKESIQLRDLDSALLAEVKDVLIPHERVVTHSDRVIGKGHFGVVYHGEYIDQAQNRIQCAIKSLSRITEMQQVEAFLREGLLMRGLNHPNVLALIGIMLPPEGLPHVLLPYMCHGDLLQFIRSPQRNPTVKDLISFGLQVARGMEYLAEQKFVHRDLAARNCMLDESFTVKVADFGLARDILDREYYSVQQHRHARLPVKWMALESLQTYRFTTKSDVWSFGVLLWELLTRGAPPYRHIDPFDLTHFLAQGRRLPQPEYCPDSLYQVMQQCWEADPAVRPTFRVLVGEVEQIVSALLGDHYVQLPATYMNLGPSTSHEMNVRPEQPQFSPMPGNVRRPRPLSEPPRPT
In short: as §1

[1] = read-out: % Enzyme Activity (relative to DMSO controls) Run 1
[2] = read-out: % Enzyme Activity (relative to DMSO controls) Run 2

T1 sequence (Q5TCY1 whole entry): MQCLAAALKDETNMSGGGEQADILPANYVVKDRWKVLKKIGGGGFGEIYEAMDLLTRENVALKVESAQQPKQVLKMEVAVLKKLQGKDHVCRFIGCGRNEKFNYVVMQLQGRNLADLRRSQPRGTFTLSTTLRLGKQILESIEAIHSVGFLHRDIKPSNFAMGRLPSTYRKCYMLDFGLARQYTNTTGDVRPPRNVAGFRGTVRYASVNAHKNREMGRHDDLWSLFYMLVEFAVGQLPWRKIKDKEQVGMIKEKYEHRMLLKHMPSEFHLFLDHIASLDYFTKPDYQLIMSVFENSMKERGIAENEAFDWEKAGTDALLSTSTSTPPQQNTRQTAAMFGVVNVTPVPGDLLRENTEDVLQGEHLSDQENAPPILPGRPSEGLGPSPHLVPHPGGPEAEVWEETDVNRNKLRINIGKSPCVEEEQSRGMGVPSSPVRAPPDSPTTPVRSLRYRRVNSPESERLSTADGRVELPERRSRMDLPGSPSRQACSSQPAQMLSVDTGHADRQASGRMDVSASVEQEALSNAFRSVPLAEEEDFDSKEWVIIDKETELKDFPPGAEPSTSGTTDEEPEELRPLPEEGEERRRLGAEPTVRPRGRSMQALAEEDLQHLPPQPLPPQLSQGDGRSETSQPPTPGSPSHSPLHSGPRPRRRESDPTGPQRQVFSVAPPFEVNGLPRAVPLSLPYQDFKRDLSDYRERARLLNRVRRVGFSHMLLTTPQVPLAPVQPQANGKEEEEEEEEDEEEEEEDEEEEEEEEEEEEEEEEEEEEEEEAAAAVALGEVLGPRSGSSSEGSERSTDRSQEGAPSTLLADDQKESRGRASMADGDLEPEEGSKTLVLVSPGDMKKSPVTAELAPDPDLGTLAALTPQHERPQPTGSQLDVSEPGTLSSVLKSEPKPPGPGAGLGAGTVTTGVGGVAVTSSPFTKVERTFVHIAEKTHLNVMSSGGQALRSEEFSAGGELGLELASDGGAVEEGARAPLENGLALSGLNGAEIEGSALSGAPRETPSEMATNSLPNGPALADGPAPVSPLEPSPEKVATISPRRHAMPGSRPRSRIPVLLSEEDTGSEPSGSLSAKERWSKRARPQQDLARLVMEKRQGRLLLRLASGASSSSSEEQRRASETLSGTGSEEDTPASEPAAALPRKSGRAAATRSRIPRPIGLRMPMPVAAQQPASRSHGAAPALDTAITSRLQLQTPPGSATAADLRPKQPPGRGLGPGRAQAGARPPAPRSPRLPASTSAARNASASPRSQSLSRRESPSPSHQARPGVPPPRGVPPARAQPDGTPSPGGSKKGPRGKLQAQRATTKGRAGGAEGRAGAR

C=CC(=O)Nc1cccc(Nc2nc(Nc3ccc(OCCOC)c(F)c3)ncc2F)c1 [Compound 2]
inhibition at 3 µM (TTBK1): -1.65%
remaining activity at 3 µM (TTBK1; [1]): 101%
remaining activity at 3 µM (TTBK1; [2]): 102%
inhibition at 3 µM (PKCa): 11.4%
remaining activity at 3 µM (PKCa; [1]): 88.4%
remaining activity at 3 µM (PKCa; [2]): 88.8%
inhibition at 3 µM (MST2/STK3): 10.1%
remaining activity at 3 µM (MST2/STK3; [1]): 91.1%
remaining activity at 3 µM (MST2/STK3; [2]): 88.6%
inhibition at 3 µM (RIPK3): -18.8%
remaining activity at 3 µM (RIPK3; [1]): 117%
remaining activity at 3 µM (RIPK3; [2]): 121%
inhibition at 3 µM (DMPK): -3.25%
remaining activity at 3 µM (DMPK; [1]): 104%
remaining activity at 3 µM (DMPK; [2]): 102%
inhibition at 3 µM (NEK6): -5.69%
remaining activity at 3 µM (NEK6; [1]): 106%
remaining activity at 3 µM (NEK6; [2]): 105%
inhibition at 3 µM (MKK6): 3.11%
remaining activity at 3 µM (MKK6; [1]): 96.4%
remaining activity at 3 µM (MKK6; [2]): 97.4%
inhibition at 3 µM (MARK2/PAR-1Ba): 1.3%
remaining activity at 3 µM (MARK2/PAR-1Ba; [1]): 99.6%
remaining activity at 3 µM (MARK2/PAR-1Ba; [2]): 97.8%
inhibition at 3 µM (PKN2/PRK2): 7.64%
remaining activity at 3 µM (PKN2/PRK2; [1]): 93.3%
remaining activity at 3 µM (PKN2/PRK2; [2]): 91.4%
inhibition at 3 µM (RON/MST1R): -2.24%
remaining activity at 3 µM (RON/MST1R; [1]): 103%
remaining activity at 3 µM (RON/MST1R; [2]): 101%
